{"source": "patent US20260109715A1", "about": "“IMIDAZOPYRIDINE DERIVATIVES WITH BICYCLIC STRUCTURE” (PUBLIC UNIVERSITY CORPORATION YOKOHAMA CITY UNIVERSITY, priority 2022, published 2026)", "key": {"human SMG1 enzyme": {"target": "human SMG1 enzyme (Homo sapiens, UniProt Q96Q15)", "sequence (Q96Q15 whole entry)": "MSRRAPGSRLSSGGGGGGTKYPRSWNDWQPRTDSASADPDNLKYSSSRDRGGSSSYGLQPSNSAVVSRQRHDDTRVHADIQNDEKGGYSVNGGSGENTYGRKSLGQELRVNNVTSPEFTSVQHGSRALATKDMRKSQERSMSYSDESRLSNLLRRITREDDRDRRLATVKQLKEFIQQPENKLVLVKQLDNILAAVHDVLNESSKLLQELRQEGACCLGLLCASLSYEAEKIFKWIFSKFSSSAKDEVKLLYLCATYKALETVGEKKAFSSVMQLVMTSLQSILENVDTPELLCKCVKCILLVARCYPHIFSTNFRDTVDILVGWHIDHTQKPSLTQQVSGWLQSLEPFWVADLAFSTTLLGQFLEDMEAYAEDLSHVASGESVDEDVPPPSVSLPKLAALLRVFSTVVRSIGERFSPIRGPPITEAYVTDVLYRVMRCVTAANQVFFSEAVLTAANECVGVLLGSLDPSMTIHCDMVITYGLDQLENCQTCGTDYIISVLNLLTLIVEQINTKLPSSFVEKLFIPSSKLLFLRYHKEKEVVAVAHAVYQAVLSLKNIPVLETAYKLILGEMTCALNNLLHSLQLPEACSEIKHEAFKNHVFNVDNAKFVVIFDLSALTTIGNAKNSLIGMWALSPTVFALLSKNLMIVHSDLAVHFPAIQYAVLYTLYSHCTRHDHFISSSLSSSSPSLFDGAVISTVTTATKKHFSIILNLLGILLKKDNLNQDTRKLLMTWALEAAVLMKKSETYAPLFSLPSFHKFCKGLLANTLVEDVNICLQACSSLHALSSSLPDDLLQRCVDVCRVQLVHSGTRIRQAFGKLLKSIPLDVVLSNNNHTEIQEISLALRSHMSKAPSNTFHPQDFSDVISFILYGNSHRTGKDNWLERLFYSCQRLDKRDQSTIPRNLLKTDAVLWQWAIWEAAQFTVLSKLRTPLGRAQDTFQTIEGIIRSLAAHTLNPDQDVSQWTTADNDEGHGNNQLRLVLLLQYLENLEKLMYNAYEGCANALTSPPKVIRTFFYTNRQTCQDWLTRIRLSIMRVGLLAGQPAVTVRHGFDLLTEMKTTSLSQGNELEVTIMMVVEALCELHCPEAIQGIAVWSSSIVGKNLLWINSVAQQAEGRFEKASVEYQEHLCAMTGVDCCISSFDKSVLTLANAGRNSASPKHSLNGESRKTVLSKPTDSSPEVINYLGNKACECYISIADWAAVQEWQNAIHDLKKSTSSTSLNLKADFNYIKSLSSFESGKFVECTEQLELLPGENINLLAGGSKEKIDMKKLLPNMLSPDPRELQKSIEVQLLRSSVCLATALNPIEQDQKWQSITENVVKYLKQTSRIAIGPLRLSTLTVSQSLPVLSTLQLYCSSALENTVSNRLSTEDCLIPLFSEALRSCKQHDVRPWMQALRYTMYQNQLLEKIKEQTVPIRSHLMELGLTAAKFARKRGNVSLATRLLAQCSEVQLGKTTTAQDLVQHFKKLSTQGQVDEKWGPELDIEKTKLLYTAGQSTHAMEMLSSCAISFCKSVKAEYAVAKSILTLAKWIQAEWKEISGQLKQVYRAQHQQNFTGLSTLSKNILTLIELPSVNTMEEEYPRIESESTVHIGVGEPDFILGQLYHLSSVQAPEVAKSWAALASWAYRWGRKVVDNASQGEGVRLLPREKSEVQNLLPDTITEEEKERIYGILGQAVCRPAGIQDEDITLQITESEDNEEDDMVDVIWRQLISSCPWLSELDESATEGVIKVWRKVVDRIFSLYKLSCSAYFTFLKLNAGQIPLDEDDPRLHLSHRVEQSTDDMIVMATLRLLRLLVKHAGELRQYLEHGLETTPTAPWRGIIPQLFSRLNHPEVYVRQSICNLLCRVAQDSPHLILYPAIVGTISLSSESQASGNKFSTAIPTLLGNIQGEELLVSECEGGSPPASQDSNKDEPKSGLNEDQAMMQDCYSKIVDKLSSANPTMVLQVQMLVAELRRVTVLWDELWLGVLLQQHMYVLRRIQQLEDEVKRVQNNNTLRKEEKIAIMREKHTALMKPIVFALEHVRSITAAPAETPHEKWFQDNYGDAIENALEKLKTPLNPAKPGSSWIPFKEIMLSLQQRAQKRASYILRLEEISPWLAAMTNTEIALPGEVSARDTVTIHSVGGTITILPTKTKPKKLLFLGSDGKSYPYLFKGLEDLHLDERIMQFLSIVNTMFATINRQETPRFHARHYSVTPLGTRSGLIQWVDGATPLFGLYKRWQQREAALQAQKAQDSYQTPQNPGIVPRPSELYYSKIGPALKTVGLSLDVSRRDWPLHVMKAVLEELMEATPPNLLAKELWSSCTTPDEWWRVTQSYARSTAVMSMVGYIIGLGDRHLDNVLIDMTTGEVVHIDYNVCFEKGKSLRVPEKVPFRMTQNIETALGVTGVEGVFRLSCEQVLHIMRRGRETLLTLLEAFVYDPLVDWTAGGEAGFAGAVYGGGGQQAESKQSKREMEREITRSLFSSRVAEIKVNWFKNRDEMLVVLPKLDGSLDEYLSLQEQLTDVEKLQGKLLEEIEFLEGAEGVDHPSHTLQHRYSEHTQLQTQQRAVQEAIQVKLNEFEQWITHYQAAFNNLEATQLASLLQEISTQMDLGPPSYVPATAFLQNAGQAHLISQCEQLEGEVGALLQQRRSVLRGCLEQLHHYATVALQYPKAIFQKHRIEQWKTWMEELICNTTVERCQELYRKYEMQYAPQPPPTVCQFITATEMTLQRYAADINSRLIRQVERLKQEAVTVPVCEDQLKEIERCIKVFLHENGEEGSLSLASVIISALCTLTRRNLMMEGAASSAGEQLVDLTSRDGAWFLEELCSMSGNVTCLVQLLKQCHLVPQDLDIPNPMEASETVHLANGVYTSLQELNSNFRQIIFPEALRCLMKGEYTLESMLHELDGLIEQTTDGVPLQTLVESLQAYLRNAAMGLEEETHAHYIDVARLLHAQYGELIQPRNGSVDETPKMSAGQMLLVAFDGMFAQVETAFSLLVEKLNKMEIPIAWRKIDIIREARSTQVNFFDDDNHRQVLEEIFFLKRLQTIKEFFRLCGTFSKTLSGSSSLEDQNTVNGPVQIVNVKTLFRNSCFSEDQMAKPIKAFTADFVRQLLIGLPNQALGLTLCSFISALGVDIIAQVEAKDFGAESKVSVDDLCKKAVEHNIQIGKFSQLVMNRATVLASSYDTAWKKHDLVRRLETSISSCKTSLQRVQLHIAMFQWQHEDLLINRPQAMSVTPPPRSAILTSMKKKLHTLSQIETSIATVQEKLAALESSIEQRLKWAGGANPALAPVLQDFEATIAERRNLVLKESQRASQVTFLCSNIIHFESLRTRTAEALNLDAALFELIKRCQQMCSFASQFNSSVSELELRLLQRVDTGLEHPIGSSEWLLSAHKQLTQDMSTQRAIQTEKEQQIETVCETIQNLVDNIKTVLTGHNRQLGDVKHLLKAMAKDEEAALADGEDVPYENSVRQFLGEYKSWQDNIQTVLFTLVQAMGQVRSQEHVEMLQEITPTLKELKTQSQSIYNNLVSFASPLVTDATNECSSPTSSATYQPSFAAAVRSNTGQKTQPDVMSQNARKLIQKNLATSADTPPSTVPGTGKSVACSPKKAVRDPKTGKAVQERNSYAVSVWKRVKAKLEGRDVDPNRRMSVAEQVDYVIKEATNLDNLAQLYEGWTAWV", "assay": "Measurement of SMG1 kinase activity (ADP-Glo Kinase Assay)", "assay_type": "biochemical", "conditions": "purified human SMG1 enzyme 5 nM, Upf1 peptide substrate, ATP 4 μM; qAC50 synonymous with IC50; read-out: Test Example 1 ADP-Glo IC50", "outline": "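Purified human SMG1 (5 nM) preincubated with compound (1% DMSO) 15 min at room temperature in HEPES pH 7.5 buffer with MnCl2, then reacted 60 min with Upf1 peptide (8 μg/mL) and 4 μM ATP. ADP formed measured by ADP-Glo luminescence; IC50 by 4-parameter logistic fit, normalised to DMSO (0%) and enzyme-free (−100%) wells.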"}, "[1]": {"tested_on": "Snhg1 transcript in tumor tissues of mice subcutaneously implanted with EMT6 murine breast cancer cell line", "assay": "Evaluation of NMD inhibitory activity in vivo (Snhg1 transcript in EMT6 tumor tissue after oral administration)", "conditions": "10 mg/kg oral, 6 hours after administration, BALB/c mice", "outline": "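BALB/c mice bearing subcutaneous EMT6 tumours (engraftment confirmed day 7) dosed orally; tumours excised 6 h post-dose. Snhg1 RNA quantified by qRT-PCR, ΔΔCT with Gapdh as endogenous control, expressed relative to 0.5% methylcellulose vehicle group set at 1.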"}, "[2]": {"tested_on": "Snhg1 transcript (NMD target gene) in EMT6 murine breast cancer cell line", "assay": "Measurement of NMD inhibitory activity in cells (increase in Snhg1 transcript, real-time PCR)", "set-up": "species or system mouse", "conditions": "Mus musculus, 6 hours treatment, concentration giving 1/2 of maximum Snhg1 fold change of positive control, read-out: Test Example 2 Cell-based Snhg1 EC50", "outline": "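EMT6 cells treated with serially diluted compound (2% DMSO final) for 6 h; Snhg1 transcript quantified by real-time PCR (ΔΔCT, Tbp endogenous control, untreated wells set to 1). EC50 taken as concentration giving half the maximum fold change of a known NMD inhibitor positive control.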"}}, "data": [{"smiles": "CCc1nc(Cl)cc2[nH]c(N3Cc4c(ccnc4-c4cnc(C5CC5)cc4OC)NC3=O)nc12.CS(=O)(=O)O", "note": "[Example 154, 3-(6-chloro-4-ethyl-1H-imidazo[4,5-c]pyridin-2-yl)-5-(6-cyclopropyl-4-methoxypyridin-3-yl)-3,4-dihydropyrido[4,3-d]pyrimidin-2(1H)-one methanesulfonate]", "values": [{"measurement": "IC50", "setting": "human SMG1 enzyme", "result": 0.53, "unit": "nM"}, {"measurement": "Snhg1 fold change", "setting": "[1]", "result": 10}, {"measurement": "EC50", "setting": "[2]", "result": 0.5, "unit": "nM"}]}]}
